Measurements: patent US5292740A, “Sulfonamides” (Hoffmann-La Roche Inc., priority 1991, dated 1994)

Assays:
endothelin receptors = assay: Inhibition of endothelin binding to human placenta membranes; conditions: 125I-endothelin 20 pM, 20° C. for 2 hours or 4° C. for 24 hours, read-out: IC50 (concentration required to inhibit 50% of the specific binding of 125I-endothelin)
Procedure: I: Inhibition of endothelin binding to human placenta membranes (see. Life Sci 44:1429 (1989))
Human placenta is homogenized in 5 mM Tris buffer, pH 7.4, which contains 1 mM MgCl2 and 250 mM sucrose. The homogenizate is centrifuged at 4° C. and 3000 g for 15 minutes, the supernatant containing the plasma membrane fraction is centrifuged with 72000 g for 30 minutes and the precipitate is washed with 75 mM Tris buffer, pH 7.4, which contains 25 mM MgCl2. Thereafter, precipitate obtained from, in each case, 10 g of original tissue is suspended in 1 ml of 75 mM Tris buffer, pH 7.4, containing 25 mM MgCl2 and 250 mM sucrose, and freeze-dried at -20° C. in 1 ml aliquots.
For the binding assay, the freeze-dried membrane preparations are thawed and, after centrifugation at 20° C. and 25000 g for 10 minutes, re-suspended in assay buffer (50 mM Tris buffer, pH 7.4, containing 25 mM MnCl2, 1 mM EDTA and 0.5% of bovine serum albumin). […] of this membrane suspension containing […] of protein are incubated with […] of ^125 I-endothelin (specific activity 2200 Ci/mMol) in assay buffer (25000 cpm, final concentration 20 pM) and […] of assay buffer containing varying concentrations of test compound. The incubation is carried out at 20° C. for 2 hours or at 4° C. for 24 hours. The separation of free and membrane-bound radioligands is carried out by filtration over a glass fibre filter.
The inhibitory activity of compounds of formula I determined in this test procedure is given in Table 1 as the IC50, that is, as the concentration […] which is required to inhibit 50% of the specific binding of ^125 I-endothelin.

rats = assay: Inhibitory activity on vasoconstriction in vivo in rats (renal ischaemia, renal perfusion by Doppler); set-up: species or system rat; conditions: 45 minutes renal ischaemia; compound given 10 minutes before, 5 mg/kg i.a. or 10 mg/kg i.v.; control tests 43±4% reduction vs preischaemic value
Procedure: III. The inhibitory activity of the compounds of formula I on vasoconstriction can be observed in vivo in rats in the test procedure described hereinafter:
Rats were anaesthetized with Na thiobutabarbital (100 mg/kg i.p.). A catheter for measuring the systemic arterial blood pressure was placed through the femoral artery and a catheter was placed in the vena cava via the femoral vein for injection of the test compounds. A Doppler sonde was placed around the left renal artery and attached to a Doppler measuring apparatus. A renal ischaemia was produced by pinching off the left renal artery at its point of exit for 45 minutes. 10 minutes prior to the induction of the ischaemia the test compounds were administered intraarterially (i.a.) in dosages of 5 mg/kg or intravenously (i.v.) in dosages of 10 mg/kg. In control tests, the renal perfusion was reduced by 43±4% compared to the preischaemic value.

[1] = test system: isolated rat aorta rings (endothelin-induced contractions); assay: Inhibition of endothelin-induced contractions in isolated rat aorta rings; assay type: cell-based, rat (adult Wistar-Kyoto); conditions: in the absence of test compounds; read-out: EC50 of endothelin (concentration required for a half-maximum contraction)
Procedure: II. Inhibition of endothelin-induced contractions in isolated rat aorta rings
Rings with a length of 5 mm were cut out from the thorax aorta of adult Wistar-Kyoto rats. The endothelium was removed by lightly rubbing the internal surface. Each ring was immersed at 37° C. in 10 ml of Krebs-Henseleit solution in an isolated bath while gassing with 95% O2 and 5% CO2. The isometric stretching of the rings was measured. The rings were stretched to a pretension of 3 g. After incubation for 10 minutes with the test compound or vehicle, cumulative dosages of endothelin-1 were added. The activity of the test compound was determined by calculating the dosage ratios, that is, the shift to the right (shift to higher values) of the EC50 of endothelin induced by […] of test compound, with EC50 denoting the endothelin concentration required for a half-maximum contraction. […] The EC50 of endothelin in the absence of test compounds is 0.3 nM.

Row | Compound | IC50 (endothelin receptors) | % Decrease in renal perfusion (rats) | EC50 [1]
1 | COc1ccccc1Oc1c(NS(=O)(=O)c2ccc(C(C)C)cc2)nc(-c2ccccc2)nc1OCCO [Example 12, N-[6-(2-hydroxyethoxy)-5-(o-methoxyphenoxy)-2-phenyl-4-pyrimidinyl]-p-isopropylbenzenesulfonamide] | 125 nM | – | –
2 | COc1ccccc1Oc1c(NS(=O)(=O)c2ccc(C(C)(C)C)cc2)ncnc1OCCO [Example 1, p-t-butyl-N-[6-(2-hydroxyethoxy)-5-(o-methoxyphenoxy)-4-pyrimidinyl]benzenesulfonamide] | 115 nM | 13.4 ± 5.2% | –
3 | COc1ccccc1Oc1c(NS(=O)(=O)c2ccc(C(C)C)cc2)ncnc1OCCO [Example 2, N-[6-(hydroxyethoxy)-5-(o-methoxyphenoxy)-4-pyrimidinyl]-p-isopropylbenzenesulfonamide] | 100 nM | – | –
4 | COc1ccccc1Oc1c(NS(=O)(=O)c2ccc(C(C)C)cc2)nc(C)nc1OCCO [Example 24, N-[6-(2-hydroxyethoxy)-5-(o-methoxyphenoxy)-2-methyl-4-pyrimidinyl]-p-isopropylbenzenesulfonamide] | 73 nM | – | –
5 | endothelin: endothelin-1, agonist added in cumulative dosages to contract rat aorta rings | – | – | 0.3 nM
6 | COc1ccccc1Oc1c(NS(=O)(=O)c2ccc(C(C)C)cc2)nc(C(F)(F)F)nc1OCCO [Example 25] | 50 nM | – | –
7 | COc1cccc(Oc2c(NS(=O)(=O)c3ccc(C(C)(C)C)cc3)ncnc2OCCO)c1 [Example 6, p-t-butyl-N-[6-(2-hydroxyethoxy)-5-(m-methoxyphenoxy)-4-pyrimidinyl]benzenesulphonamide] | 200 nM | 11.7 ± 4.7% | –
8 | CC(C)(C)c1ccc(S(=O)(=O)Nc2ncnc(OCCO)c2Oc2ccc3c(c2)OCO3)cc1 [Example 27, N-[5-(1,3-benzodioxol-5-yloxy)-6-(2-hydroxyethoxy)-4-pyrimidinyl]-p-tert-butylbenzenesulfonamide] | 99 nM | – | –
